The values below are quoted from earlier work in patent publication US20180133151A1, “NEBULIZED TIOTROPIUM” (GLENMARK SPECIALTY S.A., priority 2016, published 2018).

For `C[N+]1(C)C2CC(OC(=O)C(O)(c3cccs3)c3cccs3)CC1C1OC12` (stereo not drawn) [Tiotropium bromide, (1+,2β,4β,7β)-7-[(hydroxydi-2-thienylacetyl)oxy]-9,9-dimethyl-3-oxa-9-azoniatricyclo[3.3.1.02,4]nonane bromide], the Solubility in methanol entry (methanol) is recorded as “soluble”. Where the note is “water”, the Solubility in water result was “sparingly soluble”.
